One assay relates to HEK293-EGFP-eIF2a cells. Nature of the assay: PERK Cellular Assay (TR-FRET, GFP-eIF2α, tunicamycin-induced ER stress). Type of assay: cell-based, human. Here is the method:
Stable cell lines were created in HEK293 cells using lentiviral particles harboring an expression vector for GFP-eIF2α. Cells were selected using puromycin and enriched using fluorescence activated cell sorting against GFP. HEK293-EGFP-eIF2a cells were plated at 5000 cells/well in 384-well assay plates and incubated overnight at 37° C., 5% CO2. Inhibitor compounds were added to the wells by Echo acoustic dispensing and incubated for 30 minutes at 37° C., 5% CO2 prior to induction of ER stress by addition of tunicamycin to […] for 2 hours. Cells were lysed and TR-FRET was measured in an EnVision plate reader (PerkinElmer). FRET ratio data was normalized to signal from lysates treated with DMSO vehicle control and plotted as percent inhibition against 10-point; 3-fold dilution series of inhibitors. IC50 values were calculated using 4-parameter logistical fitting in XLFit.
In general terms: In TR-FRET formats the signal depends on donor and acceptor labels being close together.

The target in assay [1] is T1, EIF2AK3 (PERK) catalytic domain (amino acids 536-1116) (Homo sapiens, UniProt Q9NZJ5).
T1 construct: EIF2AK3 (PERK) catalytic domain (amino acids 536-1116); purchased Invitrogen, Carlsbad, Calif
T1 sequence (Q9NZJ5 536-1116): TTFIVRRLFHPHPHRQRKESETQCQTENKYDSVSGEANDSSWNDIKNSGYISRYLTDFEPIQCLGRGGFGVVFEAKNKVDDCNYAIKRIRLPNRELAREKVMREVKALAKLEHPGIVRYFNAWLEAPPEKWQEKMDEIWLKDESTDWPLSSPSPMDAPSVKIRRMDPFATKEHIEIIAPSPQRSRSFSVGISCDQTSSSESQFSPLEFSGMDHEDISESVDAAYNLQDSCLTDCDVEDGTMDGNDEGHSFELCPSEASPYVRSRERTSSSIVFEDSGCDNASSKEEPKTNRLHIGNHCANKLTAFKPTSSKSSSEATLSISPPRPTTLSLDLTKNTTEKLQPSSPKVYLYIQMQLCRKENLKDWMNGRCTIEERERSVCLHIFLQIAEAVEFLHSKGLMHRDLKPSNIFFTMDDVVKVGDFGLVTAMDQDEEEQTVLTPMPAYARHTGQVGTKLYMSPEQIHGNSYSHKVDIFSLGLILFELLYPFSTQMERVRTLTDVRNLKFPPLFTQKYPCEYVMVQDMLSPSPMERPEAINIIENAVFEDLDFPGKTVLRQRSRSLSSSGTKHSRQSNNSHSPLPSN
Kind of assay: PERK In Vitro Activity Assay (Isolated), TR-FRET kinase assay. The note with it: isolated PERK enzyme, 1.5 μM ATP. Type of assay: biochemical. The procedure: Perform TR-FRET kinase assays in the absence or presence of inhibitors in a reaction buffer consisting of 50 mM HEPES, pH 7.5, 10 mM MgCb, 1.0 mM EGTA, and 0.01% Brij-35, and 100-200 nM GFP-eIF2a substrate. […] Add test compound, initiate the reaction by addition of enzyme, and incubate at room temperature for 45 minutes. Stop the reaction by addition of EDTA to a final concentration of 10 mM, add Terbium-labelled phospho-eIF2a antibody at a final concentration of 2 nM, and incubate for 90 minutes. Monitor the resulting fluorescence in an EnVison® Multilabel reader (PerkinElmer, Waltham, Mass.).

Where [2] appears, read: Homo sapiens, 2 h, HEK293-EGFP-eIF2a cells, tunicamycin 2 hours, TR-FRET, read-out: Cellular eIF2α IC50.
The mark [3] stands for this setting: HEK293-EGFP-eIF2a cells, tunicamycin 2 hours, TR-FRET, read-out: Cellular eIF2α IC50.

Each structure is given as a SMILES string. Like-named read-outs stand apart in the source and are kept apart here.

In general, IC50 refers to the midpoint of a concentration-inhibition curve. As for `Cc1nc(N)c2c(-c3ccc4c(c3F)CCN4C(=O)C(O)c3cccc(F)c3)cn(C)c2n1` (racemic) [Example 9, 1-(5-(4-amino-2,7-dimethyl-7H-pyrrolo[2,3-d]pyrimidin-5-yl)-4-fluoroindolin-1-yl)-2-(3-fluorophenyl)-2-hydroxyethanone], the half-inhibitory concentration (IC50) in the assay with HEK293-EGFP-eIF2a cells (setting [2]) lay within 0.051 to 0.1 µM.

Take `Cn1cc(-c2ccc3c(c2F)CCN3C(=O)Nc2ccccc2)c2c(N)ncnc21` [Example 28, 5-(4-amino-7-methyl-7H-pyrrolo[2,3-d]pyrimidin-5-yl)-4-fluoro-N-phenylindoline-1-carboxamide]: the IC50 in assay [1] (read-out: Biochemical IC50) lay in the range of 0.101 to 0.25 µM; in the assay with HEK293-EGFP-eIF2a cells (setting [2]), 2 to 3 µM. The corresponding values for `Cc1cccc(CC(=O)N2CCc3c2ccc(-c2cn(C)c4nc(C)nc(N)c24)c3F)n1` [Example 21, 1-(5-(4-amino-2,7-dimethyl-7H-pyrrolo[2,3-d]pyrimidin-5-yl)-4-fluoroindolin-1-yl)-2-(6-methylpyridin-2-yl)ethanone] are 0.001 to 0.025 µM and 0.026 to 0.05 µM. Regarding `Cc1cccc(CC(=O)N2CCc3c2ccc(-c2nc(C)n4c(C)c(C)nc(N)c24)c3F)n1` [Example 27, 1-(5-(8-amino-3,5,6-trimethylimidazo[1,5-a]pyrazin-1-yl)-4-fluoroindolin-1-yl)-2-(6-methylpyridin-2-yl)ethanone], the IC50 lay in the range of 0.051 to 0.1 µM in assay [1] (read-out: Biochemical IC50) and 0.251 to 0.5 µM in the assay on HEK293-EGFP-eIF2a cells (setting [2]). Take `Cc1cn2c(C3CC(C)(O)C3)nc(-c3ccc4c(c3F)CCN4C(=O)C(O)c3cccc(F)c3)c2c(N)n1` (single isomer, unassigned) [Example 14, 1-(5-(8-amino-3-(3-hydroxy-3-methylcyclobutyl)-6-methylimidazo[1,5-a]pyrazin-1-yl)-4-fluoroindolin-1-yl)-2-(3-fluorophenyl)-2-hydroxyethanone]: the half-inhibitory concentration (IC50) in assay [1] (read-out: Biochemical IC50) is 0.001 to 0.025 µM; in the assay on HEK293-EGFP-eIF2a cells (setting [3]) it was 0.051 to 0.1 µM. In the same order, the values of `Cn1cc(-c2ccc3c(c2F)CCN3C(=O)C(O)c2ccccc2)c2c(N)ncnc21` (single isomer, unassigned) [Example 1, 1-(5-(4-amino-7-methyl-7H-pyrrolo[2,3-d]pyrimidin-5-yl)-4-fluoroindolin-1-yl)-2-hydroxy-2-phenylethanone] are 0.001 to 0.025 µM and 0.001 to 0.025 µM. In the same order, the values of `CC(C)NC(=O)c1cc(-c2ccc3c(c2F)CCN3C(=O)C(O)c2cc(F)cc(F)c2)cnc1N` (single isomer, unassigned) [Example 6, 2-amino-5-(1-(2-(3,5-difluorophenyl)-2-hydroxyacetyl)-4-fluoroindolin-5-yl)-N-isopropylnicotinamide] are 0.101 to 0.25 µM and 0.251 to 0.5 µM. Turning to `Cn1cc(-c2ccc3c(c2F)CCN3C(=O)Cc2cccc(C(F)(F)F)n2)c2c(N)ncnc21` [Example 22, 1-(5-(4-amino-7-methyl-7H-pyrrolo[2,3-d]pyrimidin-5-yl)-4-fluoroindolin-1-yl)-2-(6-(trifluoromethyl)pyridin-2-yl)ethanone], the IC50 in assay [1] (Biochemical IC50 (μM)) was in the range of 0.001 to 0.025 µM; with HEK293-EGFP-eIF2a cells (Homo sapiens, 2 h, read-out: Cellular eIF2α IC50 (μM)) it was 0.001 to 0.025 µM. Turning to `Cc1nc(N)c2c(-c3ccc4c(c3F)CCN4C(=O)C(O)c3ccccc3)cn(C)c2n1` (racemic) [Example 5, 1-(5-(4-amino-2,7-dimethyl-7H-pyrrolo[2,3-d]pyrimidin-5-yl)-4-fluoroindolin-1-yl)-2-hydroxy-2-phenylethanone], in assay [1] (read-out: Biochemical IC50), the IC50 was 0.026 to 0.05 µM. Consider `Cc1cccc(C(O)C(=O)N2CCc3c2ccc(-c2nc(C4CC(C)(O)C4)n4cc(C)nc(N)c24)c3F)n1` (single isomer, unassigned) [Example 17, 1-(5-(8-amino-3-(3-hydroxy-3-methylcyclobutyl)-6-methylimidazo[1,5-a]pyrazin-1-yl)-4-fluoroindolin-1-yl)-2-hydroxy-2-(6-methylpyridin-2-yl)ethanone], for which the IC50 in assay [1] (read-out: Biochemical IC50) was 0.051 to 0.1 µM; in the assay with HEK293-EGFP-eIF2a cells (setting [2]), over 5 µM. `Cc1nc(N)c2c(-c3ccc4c(c3F)CCN4C(=O)C(O)c3cc(F)cc(F)c3)cn(C)c2n1` (racemic) [Example 10, 1-(5-(4-amino-2,7-dimethyl-7H-pyrrolo[2,3-d]pyrimidin-5-yl)-4-fluoroindolin-1-yl)-2-(3,5-difluorophenyl)-2-hydroxyethanone]: the 50% inhibitory concentration (IC50) (in assay [1] (read-out: Biochemical IC50); with HEK293-EGFP-eIF2a cells (setting [2])) was 0.001 to 0.025 µM throughout. Regarding `Cc1cccc(CC(=O)N2CCc3c2ccc(-c2cnc(N)c(C(=O)NC(C)C)c2)c3F)n1` [Example 29, 2-amino-5-(4-fluoro-1-(2-(6-methylpyridin-2-yl)acetyl)indolin-5-yl)-N-isopropylnicotinamide], the values for the IC50 (in assay [1] (read-out: Biochemical IC50); with HEK293-EGFP-eIF2a cells (setting [2])) were 0.051 to 0.1 µM and 0.501 to 1 µM, respectively.

Take `Cn1cc(-c2ccc3c(c2F)CCN3C(=O)C(N)c2ccccc2)c2c(N)ncnc21` (single isomer, unassigned) [Example 3, 2-amino-1-(5-(4-amino-7-methyl-7H-pyrrolo[2,3-d]pyrimidin-5-yl)-4-fluoroindolin-1-yl)-2-phenylethanone]: the half-maximal inhibitory concentration (IC50) (in assay [1] (read-out: Biochemical IC50); in the assay with HEK293-EGFP-eIF2a cells (setting [2])) was 0.051 to 0.1 µM throughout. For `Cc1nc(N)c2c(-c3ccc4c(c3)CCN4C(=O)C(O)c3cc(F)cc(C(F)(F)F)c3)cn(C)c2n1` (single isomer, unassigned) [Example 19, 1-(5-(4-amino-2,7-dimethyl-7H-pyrrolo[2,3-d]pyrimidin-5-yl)indolin-1-yl)-2-(3-fluoro-5-(trifluoromethyl)phenyl)-2-hydroxyethanone], the IC50 in assay [1] (read-out: Biochemical IC50) is 0.001 to 0.025 µM; in the assay with HEK293-EGFP-eIF2a cells (setting [3]), 0.101 to 0.25 µM. For `Cc1cc(C)n(CC(=O)N2CCc3c2ccc(-c2cn(C)c4nc(C)nc(N)c24)c3F)n1` [Example 32, 1-(5-(4-amino-2,7-dimethyl-7H-pyrrolo[2,3-d]pyrimidin-5-yl)-4-fluoroindolin-1-yl)-2-(3,5-dimethyl-1H-pyrazol-1-yl)ethanone], the figures for the concentration for half-maximal inhibition (IC50) (in assay [1] (read-out: Biochemical IC50); in the assay with HEK293-EGFP-eIF2a cells (setting [2])) were 0.001 to 0.025 µM and 0.051 to 0.1 µM, respectively. As for `CC(C)NC(=O)c1cc(-c2ccc3c(c2F)CCN3C(=O)C(O)c2cc(F)cc(F)c2)cnc1N` (single isomer, unassigned) [Example 7, 2-amino-5-(1-(2-(3,5-difluorophenyl)-2-hydroxyacetyl)-4-fluoroindolin-5-yl)-N-isopropylnicotinamide], the results for the IC50 (in assay [1] (read-out: Biochemical IC50); in the assay with HEK293-EGFP-eIF2a cells (setting [3])) were 0.051 to 0.1 µM and 0.101 to 0.25 µM, respectively. Turning to `Cc1cccc(CC(=O)N2CCc3c2ccc(-c2nc(C)n4ccnc(N)c24)c3F)n1` [Example 23, 1-(5-(8-amino-3-methylimidazo[1,5-a]pyrazin-1-yl)-4-fluoroindolin-1-yl)-2-(6-methylpyridin-2-yl)ethanone], the IC50 (in assay [1] (read-out: Biochemical IC50); in the assay on HEK293-EGFP-eIF2a cells (setting [2])) was 0.026 to 0.05 µM in each case.

With `Cc1cccc(C(O)C(=O)N2CCc3c2ccc(-c2nc(C4CC(C)(O)C4)n4cc(C)nc(N)c24)c3F)n1` (single isomer, unassigned) [Example 18, 1-(5-(8-amino-3-(3-hydroxy-3-methylcyclobutyl)-6-methylimidazo[1,5-a]pyrazin-1-yl)-4-fluoroindolin-1-yl)-2-hydroxy-2-(6-methylpyridin-2-yl)ethanone], the results for the IC50 (in assay [1] (read-out: Biochemical IC50); in the assay with HEK293-EGFP-eIF2a cells (setting [3])) were 0.051 to 0.1 µM and 3 to 4 µM, respectively. Regarding `CCc1cnc(N)c2c(-c3ccc4c(c3F)CCN4C(=O)Cc3cccc(C)n3)nc(C)n12` [Example 25, 1-(5-(8-amino-5-ethyl-3-methylimidazo[1,5-a]pyrazin-1-yl)-4-fluoroindolin-1-yl)-2-(6-methylpyridin-2-yl)ethanone], the IC50 (in assay [1] (read-out: Biochemical IC50); in the assay on HEK293-EGFP-eIF2a cells (setting [2])) was 0.051 to 0.1 µM each time.

For the origin of these results see patent US20220348584A1, “PERK INHIBITING INDOLINYL COMPOUNDS” (HiberCell, Inc., priority 2019, published 2022).
